In article PMC6682008 (ACS Omega, 2019):

These compounds were tested against hSPR (human sepiapterin reductase) (Homo sapiens, UniProt P35270) (assay: colorimetric sepiapterin reduction, absorbance decrease at […] nm).
Chain of hSPR (human sepiapterin reductase) (P35270 whole entry): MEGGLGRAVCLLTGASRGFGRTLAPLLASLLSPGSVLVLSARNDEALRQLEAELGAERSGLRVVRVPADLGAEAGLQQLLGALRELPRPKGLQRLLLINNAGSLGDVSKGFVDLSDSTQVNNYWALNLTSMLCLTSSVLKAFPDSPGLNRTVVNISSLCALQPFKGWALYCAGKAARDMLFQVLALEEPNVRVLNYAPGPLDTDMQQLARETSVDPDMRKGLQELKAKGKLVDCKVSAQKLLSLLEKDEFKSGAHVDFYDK
Assay type: biochemical
Compound `C[C@H](Cc1ccc(O)c(O)c1)[C@@H](C)Cc1ccc(O)c(O)c1` [nordihydroguaiaretic acid] has an IC50 of 8.26 µM.
`CC(=O)NCCc1c[nH]c2ccc(O)cc12` [N-acetylserotonin, reference compound] was tested, and the IC50 was 11.6 µM.
Work on `COc1ccc(/C=C/C(=O)Nc2ccccc2C(=O)O)cc1OC` [tranilast, N-3′,4′-dimethoxycinnamoyl-anthranilic acid] yielded an IC50 of 5.89 µM.
